# Counter-ions that a name gives are not always drawn.
# Biological target: protein kinase C
# Experiment: Inhibition of protein kinase C in vitro (protein kinase-induced incorporation of 32P from [γ-32P]ATP into histone)
# Format: biochemical
# Conditions: concentration which reduces by 50% the protein kinase-induced incorporation of 32P from [γ-32P]ATP into histone
# From the text: The IC50 FIGURES in the following Table are that concentration of test compound which reduces by 50% the protein kinase-induced incorporation of ^32 P from [γ-^32 P]ATP into histone.
row,Compound,IC50 [nM]
1,"CN(C)CC1Cc2c(C3=C(c4cn(C)c5ccccc45)C(=O)NC3=O)c3ccccc3n2C1 (centres unmarked) [3-[2,3-dihydro-2-(dimethylaminomethyl)-1H-pyrrolo[1,2-a]indol-9-yl]-4-(1-methyl-3-indolyl)-1H-pyrrole-2,5-dione trifluoromethanesulphonate]",20
2,"Cn1cc(C2=C(c3c4n(c5ccccc35)CCN(C(=O)CN)C4)C(=O)NC2=O)c2ccccc21 [3-[2-(aminoacetyl)-1,2,3,4-tetrahydropyrazino[1,2-a]indol-10-yl]-4-(1-methyl-3-indolyl)-1H-pyrrole-2,5-dione hydrochloride]",50
3,"Cn1cc(C2=C(c3c4n(c5ccccc35)CCC(CN3CCCCC3)C4)C(=O)NC2=O)c2ccccc21 (centres unmarked) [3-[6,7,8,9-tetrahydro-8-[(1-piperidino)methyl]pyrido[1,2-a]indol-10-yl]-4-(1-methyl-3-indolyl)-1H-pyrrole-2,5-dione]",30
4,"Cn1cc(C2=C(c3c4n(c5ccccc35)CC(CCN)CC4)C(=O)NC2=O)c2ccccc21 (centres unmarked) [3-[7-(2-aminoethyl)-6,7,8,9-tetrahydropyrido[1,2-a]indol-10-yl]-4-(1-methyl-3-indolyl)-1H-pyrrole-2,5-dione hydrochloride]",20
5,"Cn1cc(C2=C(c3c4n(c5ccccc35)CC(CSC(=N)N)CC4)C(=O)NC2=O)c2ccccc21 (centres unmarked) [3-[7-(amidinothiomethyl)-6,7,8,9-tetrahydropyrido[1,2-a]indol-10-yl]-4-(1-methyl-3-indolyl)-1H-pyrrole-2,5-dione methanesulfonate]",10
6,"Cn1cc(C2=C(c3c4n(c5ccccc35)CC(CN)CC4)C(=O)NC2=O)c2ccccc21 (centres unmarked) [3-[7-(aminomethyl)-6,7,8,9-tetrahydropyrido[1,2-a]indol-10-yl]-4-(1-methyl-3-indolyl)-1H-pyrrole-2,5-dione]",15
7,"Cn1cc(C2=C(c3c4n(c5ccccc35)CCC(CN)C4)C(=O)NC2=O)c2ccccc21 (centres unmarked) [3-[8-(aminomethyl)-6,7,8,9-tetrahydropyrido[1,2-a]indol-10-yl]-4-(1-methyl-3-indolyl)-1H-pyrrole-2,5-dione hydrochloride]",8
8,"Cn1cc(C2=C(c3c4n(c5ccccc35)CCC(C(=N)N)C4)C(=O)NC2=O)c2ccccc21 (centres unmarked) [3-[8-amidino-6,7,8,9-tetrahydropyrido[1,2-a]indol-10-yl]-4-(1-methyl-3-indolyl)-1H-pyrrole-2,5-dione hydrochloride]",60

# From patent US5721245A, “4-[3-indolyl]-1H-pyrrolone” (Hoffmann-La Roche Inc., priority 1989, dated 1998)
